Broadly, the inhibition is how much of the control response was suppressed.

Data on 36 compounds can be found in PubChem BioAssay AID743274 (The Scripps Research Institute Molecular Screening Center, 2014).

The test concerns P. falciparum 3D7 in RBCs, 3H-hypoxanthine incorporation, 48 h. Description: blood-stage malaria parasite growth inhibition – cell-based, 3H-hypoxanthine radiolabel, RBCs, Set 2, P. falciparum M17LAP inhibitor project, late-stage follow-up (AID 743274). Conditions: at 10 µM; hits give high values.

The source made the active and inactive calls.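 How the source made its calls: active means malaria parasite growth inhibition of at least 50% at 10 µM in any single replicate well; inactive means under 50% inhibition in every replicate.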

Consider `CCCCCCCCCC(=O)NO`, for which the inhibition is 53%.
In the case of `CN(O)C(=O)Cc1ccc(OCc2ccccc2)cc1`, the inhibition was 15.5% (inactive).
Regarding `Cc1ccc(CC(=O)NO)cc1`, the inhibition is 53%.
With `CCCCOc1ccc(C(C)(C)C(=O)NO)cc1` the figure was 12% (inactive); with `NC(N)=NCCC[C@H](N)C(=O)NO`, 0% (inactive).
Regarding `CCCCOc1cccc(CC(=O)OC)c1`, the inhibition is 3% (inactive).
For `CCCCOc1ccc(CNc2c(N(C)O)c(=O)c2=O)cc1`, the inhibition is 63%.
As to `CCCCOc1ccc(CN(O)C(=O)c2ccccc2)cc1`, the inhibition is 59.5%.
With `CCCCOc1cccc(CC(=O)NO)c1` the figure was 32.5% (inactive); with `COc1ccc(CCCC(=O)NO)cc1`, 15.5% (inactive).
Turning to `CCCCOc1ccc(CNc2c(N(O)Cc3ccccc3)c(=O)c2=O)cc1`, the inhibition is 0% (inactive).
Regarding `O=C(Cc1ccc2c(c1)CCCC2)NO`, the inhibition is 82.5%.
Regarding `O=C(Cc1ccc2ccccc2c1)NO`, the inhibition was 52%.
Consider `CCCCOc1ccc(CN(O)C(C)=O)cc1`, for which the inhibition is 19.5% (inactive).
Under `CCCOc1ccc(CC(=O)NO)cc1` stands 74%; under `CCCCOc1ccc(C(C)C(=O)OC)cc1` (stereo unspecified), 4.5% (inactive).
In the case of `CCCCOc1ccc(C(=O)NO)cc1`, the inhibition is 73.5%.
In the case of `CCOc1ccc(CC(=O)NO)cc1`, the inhibition was 70%.
As for `CCCCOc1ccc(CCC(=O)NO)cc1`, the inhibition was 26% (inactive).
Under `CCCCOc1ccc(C(C)C(=O)O)cc1` (stereo unspecified) stands 0% (inactive); under `O=C(Cc1ccc(OCc2ccccc2)cc1)NO`, 93%.
Take `CCC(C)Oc1ccc(CC(=O)NO)cc1` (stereo unspecified): the inhibition was 71%.
With `O=C(NO)c1cccc2ccccc12`, the inhibition is 0% (inactive).
Under `N[C@@H](Cc1c[nH]c2ccccc12)C(=O)NO` stands 2.5% (inactive); under `O=C(NO)c1ccc2ccccc2c1`, 53.5%.
As to `CC(C)C[C@H](N)C(=O)NO`, the inhibition was 1% (inactive).
On to `CC(C)(C(=O)NO)c1ccccc1`, for which the inhibition was 0% (inactive).
For `CCCCOc1ccc(CC(=O)N(C)O)cc1`, the inhibition is 58%.
Regarding `COc1ccc(OCCC(=O)NO)cc1`, the inhibition is 9% (inactive).
On to `CCCCOc1ccc(CC(=O)O)cc1`, for which the inhibition was 0% (inactive).
With `O=C(Cc1cccc2ccccc12)NO`, the inhibition was 14.5% (inactive).
On to `COc1ccc(CC(=O)NO)cc1`, for which the inhibition was 50%.
Take `O=C(Cc1ccc(Oc2ccccc2)cc1)NO`: the inhibition is 38.5%.
For `CCCCc1ccc(CC(=O)NO)cc1`, the inhibition is 84.5%.
As for `CC(C)COc1ccc(CC(=O)NO)cc1`, the inhibition was 69%.
On to `CCCCOc1ccc(C(C)C(=O)NO)cc1` (stereo unspecified), for which the inhibition was 59.5%.
